Here are results for three compounds from publication PMC4947679, “Quantitative In Vitro and In Vivo Evaluation of Intestinal and Blood-Brain Barrier Transport Kinetics of the Plant N-Alkylamide Pellitorine” (BioMed Research International, 2016).

Broadly, the Papp A→B is the apparent permeability from the apical to the basolateral side of a cell layer. A lower Papp A→B goes with slow passage.

Data set [1] is described as follows: Caco-2 cell permeability assay. The data set is classed as in vitro ADME, human. The following applies: human, Caco-2; positive (high permeability) control, 20 μM. On the procedure:
The Caco-2 cell line originated from a human colorectal carcinoma and was maintained in Dulbecco's modified Eagle's medium (DMEM) (95% humidity, 37°C, 5% CO2), supplemented with 10% (V/V) fetal bovine serum, 100 U/mL penicillin and 100 μg/mL streptomycin, 2 mM L-glutamine, and 1% nonessential amino acids (all from Invitrogen/GIBCO, Ghent, Belgium).
The Caco-2 cell intestinal model was used to investigate the gut mucosa permeation of pellitorine. On each Transwell (Corning Costar, New York, USA) membrane insert filter (0.4 μm pore size, 12 mm filter diameter), the cells were seeded at a density of 2.6 · 10^5 cells/cm^2 cells and cultivated in the described supplemented DMEM. Every second day, the medium was changed. During a period of 21–29 days, the cells were grown and differentiated until monolayers were formed. The integrity of the monolayers was checked via the measurement of transepithelial electrical resistance (TEER) of the monolayers with a Millicell-ERS system (Millipore Corp., Bedford, MA, USA) before and after the transport experiments. The experiments were performed in duplicate for each dose solution. Transport experiments were carried out according to Hubatsch et al. in two directions: from the apical-to-basolateral (ab) direction and from the basolateral-to-apical (ba) direction in Hanks' Balanced Salt solution. Two dose solutions of pellitorine (in Anacyclus pyrethrum extract) of 1 μg/mL in 0.5% EtOH (further indicated as DS1) and of 56 μg/mL in 0.5% of a mixture of vitamin E-TPGS (33.3%), EtOH (11.1%), PEG 400 (33.3%), and PG (22.2%) (further indicated as DS2) dissolved in HBSS were tested.
Final apical volumes of 0.4 mL and basolateral volumes of 1.2 mL were used for 12 mm filter supports during the transport experiment. After 15, 30, 60, 90, and 120 min, samples were taken from the receiver compartment (basolateral to apical transport: 100 μL, apical-to-basolateral transport: 300 μL) and immediately replaced by fresh HBSS. […] Pellitorine was quantified using a ultraperformance liquid chromatography-tandem mass spectrometry (UPLC-MS^2) method as described below.
The apparent permeability coefficient (P app in cm/s) of pellitorine in DS2 was calculated using a sink condition equation, while P app of pellitorine in DS1 was calculated using a nonsink equation. From Fick's first law, J = −D × [dC(x)]/dx (J is the flux or transfer rate along the donor-to-receptor side, D is the diffusion coefficient, x is the distance from the donor compartment, and C(x) is the concentration in the barrier at the coordinate x in the barrier), the following differential equation is derived: dM r(t)/dt = P app × A × [C d(t) − C r(t)], in which P app is the apparent permeability coefficient (a product of distribution coefficient with diffusion coefficient divided by the barrier thickness), M r is the amount of substance in the receiver chamber, A is the cross-sectional area of the barrier, C d is the donor concentration, and C r is the receiver concentration. This differential equation can be solved to calculate P app using different initial conditions depending on sink or nonsink conditions. In case of sink conditions, the following equation was obtained from the amount of compound transported per time dM r(t)/dt with the receiver concentration set to zero [18, 20]:(1) Mrt/Cd,0=Papp×A×t+c, where P app is the apparent permeability coefficient (cm/s), A is the surface area of the filter (1.12 cm^2), C d,0 is the initial concentration in the donor chamber (μg/mL), t is the time (s), and c is a constant term which vanishes, since M r is initially zero at t = 0.
The donor concentration at each time point was calculated by taking into account the amount of compound which already permeated through the cell monolayer during that time interval. In this way, the reduction in donor concentration after every sampling was also taken into account.
For orientation: Passage across Caco-2 layers is used to estimate intestinal permeability.

A short description of data set [2]: Blood-to-brain transport, multiple time regression (MTR) analysis in mice. The following applies: mice, injection into jugular vein, MTR. The procedure: Seven-to-ten-week-old female, Institute for Cancer Research, Caesarean Derived-1 (ICR-CD-1) mice (Harlan Laboratories, Venray, Netherlands) weighing 29–32 g were used for the BBB transport experiments. The experiments were performed according to the Ethical Committee principles of laboratory animal welfare as approved by Ghent University (Faculty of Veterinary Medicine, number EC2014/128).
An in vivo multiple time regression (MTR) analysis was performed in order to determine whether pellitorine could enter the brain. A dose solution of 1.8 mg/mL pure pellitorine dissolved in 6.9% EtOH, 2.5% dimethylacetamide, and 0.5% tween 80 (all w/w) diluted in lactated Ringer's solution containing 1% BSA was prepared. After anesthetizing the mice intraperitoneally with a 40% (w/V) urethane solution (3 g/kg), the jugular internalis vein and carotid artery were isolated and 20 μL of the pellitorine dose solution was injected into the jugular vein. After 1, 3, 5, 10, 12.5, and 15 min after injection (with start and end in duplicate), blood was collected from the carotid artery. Immediately thereafter, the mice were decapitated and the brains were isolated. […] The serum concentrations of pellitorine were plotted against the time (expressed in min). The curve was fitted using a first-order kinetic, two-compartment model: C(t) = C 1 × e ^−α×t + C 2 × e ^−β×t, in which C is the concentration of pellitorine in serum at time t, α and β are hybrid constants, dependent on the rate constants k e (elimination rate constant), k 1,2 (rate constant between central and peripheral tissue compartment), k 2,1 (rate constant between peripheral tissue and central compartment), C 1 is the concentration obtained after extrapolation of the distribution phase α to the y-axis, and C 2 is the concentration obtained after extrapolation of the elimination phase β to the y-axis. The ratio of the pellitorine brain and serum concentration (μL/g) was plotted versus the exposure time (θ), which is a derived time variable of the Gjedde-Patlak plot, to determine the BBB influx kinetics of pellitorine.
The exposure time is computed as θ = ∫0 ^T((C s(t) · dt)/C s(T)) and is defined as the integral of the concentration of pellitorine in serum from start (t = 0 min) to time T, divided by the concentration of pellitorine in serum at time T. The integral of the concentration of pellitorine in serum from zero to time T is the area under the curve until time T.
The brain uptake of pellitorine was fitted using a biphasic model, as elaborated by Wong et al.: (4) CbrainT/CsTK·θ+Vg·1−e^−θ·K1−K/Vg+V0≅K=0Vg·1−e^−θ·K1/Vg+V0 in which C brain(T) is the concentration of pellitorine in the brain at time T (ng/g), C s(T) the concentration of pellitorine in serum at time T (ng/μL), K the net clearance (μL/(g·min)), V g the tissue brain distribution volume (μL/g), K 1 the unidirectional clearance from pellitorine from blood to brain (i.e., the unidirectional brain transfer coefficient, also referred to as influx rate) (μL/(g·min)), and V 0 the vascular brain distribution volume (μL/g).

On the set-up of data set [3]: method as in PMID 19399718. The following applies: oral gavage in rats; cited from earlier work.

In turn, `CC(C)NCC(O)COc1cccc2ccccc12` (stereo not drawn) [propranolol, reference compound] had a Papp A→B at 120 min, 20 μM in data set [1] of 19.1 ×10⁻⁶ cm/s.
As to Dermorphin [reference compound], the “unidirectional influx rate K 1” value in data set [2] was determined as 0.26 µL/g/min.
On to “dodeca-2E,4E,8E,10E/Z-tetraenoic acid isobutylamides”, for which the elimination half-life in data set [3] was 1.20 h.
